In US8772307B2, “Substituted spiro compounds and their use for producing pain-relief medicaments” (Gruenenthal GmbH, priority 2005, dated 2014):
pIC50: −log10 of the molar value.

How the values were obtained:
[1] = biological target: T1, rat-species vanilloid receptor 1 (VR1/TRPV1) (Rattus norvegicus, UniProt O35433); test: Functional testing on vanilloid receptor 1 (VR1/TRPV1): FLIPR Ca2+ inflow assay in rat dorsal root ganglia cells (% activation / % inhibition vs capsaicin); type: cell-based; details: for inhibition at 10 µM: inhibition compared to 10 μM CP (capsaicin); for activation at 10 µM: stimulation compared to 10 μM CP (capsaicin); for pIC50: capsaicin (CAP) stimulus, average
T1 construct: endogenous in cells; host or cells: primary cells dissociated from rat dorsal root ganglia (DRG)
Procedure, shortened: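 Rat dorsal root ganglion cells, dissociated with collagenase and trypsin, were plated at 3×10^5/mL on laminin-coated plates in NGF-containing HAMS F12 and cultured 2-3 days at 37° C. Ca2+ inflow read by Fluo-4 fluorescence on FLIPR; test compounds at 10 μM referenced to 10 μM capsaicin.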

vanilloid receptor (VR1) = biological target: T2, vanilloid receptor (VR1) (Homo sapiens, UniProt Q8NER1); test: Functional testing on vanilloid receptor (VR1): FLIPR Ca2+ inflow assay in CHO K1 cells stably transfected with the VR1 gene; type: cell-based; details: for inhibition at 10 µM: CHO-K1, inhibition compared to 10 μM CP (capsaicin); for activation at 10 µM: CHO-K1, stimulation compared to 10 μM CP (capsaicin)
T2 construct: expressed in transfected cells; host or cells: CHO K1 cells (ECACC), stably transfected
Procedure, shortened: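 CHO K1 cells stably expressing VR1, loaded with Fluo-4 (2 μM, 30 min, 37° C); peak Ca²⁺ fluorescence read on FLIPR. Compound (10 μM) added first, agonism as % of 10 μM capsaicin signal; after 5 min, 100 nM capsaicin added, % inhibition calculated relative to maximal inhibition with 10 μM capsaicin.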

T2 sequence (Q8NER1 whole entry): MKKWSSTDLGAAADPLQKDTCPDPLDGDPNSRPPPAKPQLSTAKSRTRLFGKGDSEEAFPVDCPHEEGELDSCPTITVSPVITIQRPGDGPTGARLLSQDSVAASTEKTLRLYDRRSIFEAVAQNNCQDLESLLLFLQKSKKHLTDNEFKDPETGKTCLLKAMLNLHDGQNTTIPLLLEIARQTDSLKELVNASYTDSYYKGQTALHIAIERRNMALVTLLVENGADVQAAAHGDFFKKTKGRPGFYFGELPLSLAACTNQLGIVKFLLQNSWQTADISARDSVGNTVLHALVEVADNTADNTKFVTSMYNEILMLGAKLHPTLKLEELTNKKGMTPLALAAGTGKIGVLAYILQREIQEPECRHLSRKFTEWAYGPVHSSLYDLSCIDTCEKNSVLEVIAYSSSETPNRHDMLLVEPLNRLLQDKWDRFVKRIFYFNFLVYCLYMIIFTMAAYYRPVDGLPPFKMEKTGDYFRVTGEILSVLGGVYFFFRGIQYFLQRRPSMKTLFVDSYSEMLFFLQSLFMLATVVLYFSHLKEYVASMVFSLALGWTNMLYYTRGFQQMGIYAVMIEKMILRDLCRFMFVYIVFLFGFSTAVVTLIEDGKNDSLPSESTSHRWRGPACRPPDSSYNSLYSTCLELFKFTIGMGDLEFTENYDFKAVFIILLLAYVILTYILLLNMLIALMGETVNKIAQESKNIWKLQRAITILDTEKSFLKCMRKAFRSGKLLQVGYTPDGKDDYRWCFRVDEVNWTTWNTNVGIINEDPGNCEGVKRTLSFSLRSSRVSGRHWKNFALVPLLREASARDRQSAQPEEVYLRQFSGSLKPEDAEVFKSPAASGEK
T1 sequence (O35433 whole entry): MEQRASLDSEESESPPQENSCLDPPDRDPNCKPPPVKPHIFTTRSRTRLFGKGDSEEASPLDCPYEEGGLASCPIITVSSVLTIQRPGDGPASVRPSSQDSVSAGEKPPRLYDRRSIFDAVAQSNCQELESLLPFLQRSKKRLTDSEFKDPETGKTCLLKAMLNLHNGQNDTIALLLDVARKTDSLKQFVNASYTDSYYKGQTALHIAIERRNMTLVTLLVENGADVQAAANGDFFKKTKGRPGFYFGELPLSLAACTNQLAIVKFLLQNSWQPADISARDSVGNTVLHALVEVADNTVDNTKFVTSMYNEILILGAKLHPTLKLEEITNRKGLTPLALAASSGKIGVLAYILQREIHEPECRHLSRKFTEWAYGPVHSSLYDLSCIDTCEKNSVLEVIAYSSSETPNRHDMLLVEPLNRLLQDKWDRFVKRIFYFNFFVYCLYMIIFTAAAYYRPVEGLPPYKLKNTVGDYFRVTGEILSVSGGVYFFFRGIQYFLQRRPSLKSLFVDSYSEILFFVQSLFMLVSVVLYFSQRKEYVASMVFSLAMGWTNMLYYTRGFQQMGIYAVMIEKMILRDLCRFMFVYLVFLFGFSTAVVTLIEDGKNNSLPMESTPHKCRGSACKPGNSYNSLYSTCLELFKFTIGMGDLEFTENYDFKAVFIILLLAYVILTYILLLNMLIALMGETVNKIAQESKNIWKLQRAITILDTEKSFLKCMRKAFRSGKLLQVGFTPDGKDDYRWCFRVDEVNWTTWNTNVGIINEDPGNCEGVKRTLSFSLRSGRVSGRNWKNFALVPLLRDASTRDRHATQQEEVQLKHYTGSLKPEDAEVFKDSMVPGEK

Compound | inhibition at 10 µM [1] [%] | activation at 10 µM [1] [%] | inhibition at 10 µM (vanilloid receptor (VR1)) [%] | activation at 10 µM (vanilloid receptor (VR1)) [%] | pIC50 [1] | pIC50 (vanilloid receptor (VR1); capsaicin (CAP) stimulus, average)
COc1cccc(C2=NOC3(CCN(C(=O)Nc4ccc(C(F)(F)F)cc4)CC3)C2)c1 [Compound 210, 3-(3-methoxyphenyl)-1-oxa-2,8-diazaspiro[4.5]dec-2-ene-8-carboxylic acid-(4-trifluoromethylphenyl)amide] | 98 | 0.22 | 7.12 | -0.21 | – | –
COc1cc(C2=NOC3(CCN(C(=O)Nc4ccc(C(C)(C)C)cc4)CC3)C2)ccc1Cl [Compound 378, N-(4-tert-butylphenyl)-3-(4-chloro-3-methoxyphenyl)-1-oxa-2,8-diazaspiro[4.5]dec-2-ene-8-carboxamide] | 99 | 33 | 81 | 42 | – | –
CC(C)(C)c1ccc(C2=NOC3(CCN(C(=O)Nc4ccc(I)cc4)CC3)C2)cc1 [Compound 45, 3-(4-tert-butylphenyl)-1-oxa-2,8-diazaspiro[4.5]dec-2-ene-8-carboxylic acid-(4-iodophenyl)amide] | 55.5 | -0.73 | 0.17 | -0.04 | – | –
CC(C)(C)c1ccc(NC(=O)N2CCC3(CC2)CC(c2ccc(C(F)(F)F)cc2)=NO3)cc1 [Compound 145, 3-(4-trifluoromethylphenyl)-1-oxa-2,8-diazaspiro[4.5]dec-2-ene-8-carboxylic acid-(4-tert-butylphenyl)amide] | 59.9 | -0.2 | 4.26 | 2.49 | – | –
COc1cccc(C2=NOC3(CCN(C(=O)Nc4cccc(Br)c4)CC3)C2)c1 [Compound 192, 3-(3-methoxyphenyl)-1-oxa-2,8-diazaspiro[4.5]dec-2-ene-8-carboxylic acid-(3-bromophenyl)amide] | 52.1 | -0.07 | -6.74 | -0.04 | – | –
CC(C)(C)c1ccc(/C=C/C(=O)N2CCC3(CC2)CC(c2cccc(F)c2)=NO3)cc1 [Compound 353, (E)-3-(4-tert-butylphenyl)-1-(3-(3-fluorophenyl)-1-oxa-2,8-diazaspiro[4.5]dec-2-en-8-yl)prop-2-en-1-one] | 84 | 0 | 23 | 0 | – | –
CC(C)(C)c1ccc(NC(=O)N2CCC3(CC2)CC(c2ncccc2Cl)=NO3)cc1 [Compound 329, 3-(3-chloropyridin-2-yl)-1-oxa-2,8-diazaspiro[4.5]dec-2-ene-8-carboxylic acid-(4-tert-butylphenyl)amide] | 96 | 71 | 37 | 38 | – | –
O=C(Nc1ccc(I)cc1)N1CCC2(CC1)CC(c1ccccc1)=NO2 [Compound 44, 3-phenyl-1-oxa-2,8-diazaspiro[4.5]dec-2-ene-8-carboxylic acid-(4-iodophenyl)amide] | 85.6 | -0.73 | -4.4 | -0.15 | – | –
Cc1ccc(C2=NOC3(CCN(C(=S)NC4CCCC4)CC3)C2)cc1 [Compound 290, 3-p-tolyl-1-oxa-2,8-diazaspiro[4.5]dec-2-ene-8-thiocarboxylic acid cyclopentylamide] | 48.4 | -0.47 | -7.84 | -0.28 | – | –
COc1cccc(C2=NOC3(CCN(C(=O)Nc4ccc(SC)cc4)CC3)C2)c1 [Compound 65, 3-(3-methoxyphenyl)-1-oxa-2,8-diazaspiro[4.5]dec-2-ene-8-carboxylic acid-(4-methylsulphanylphenyl)amide] | 80.5 | 0.08 | -10.8 | -0.07 | – | –
COc1cccc(C2=NOC3(CCN(C(=O)C#Cc4ccc(C(F)(F)F)cc4)CC3)C2)c1 [Compound 361, 1-(3-(3-methoxyphenyl)-1-oxa-2,8-diazaspiro[4.5]dec-2-en-8-yl)-3-(4-(trifluoromethyl)phenyl)prop-2-yn-1-one] | 58 | 0 | 12 | 0 | – | –
O=C(Nc1ccccc1)N1CCC2(CC1)CC(c1ccc(Cl)cc1)=NO2 [Compound 3, 3-(4-chlorophenyl)-1-oxa-2,8-diazaspiro[4.5]dec-2-ene-8-carboxylic acid phenylamide] | 43.8 | -0.73 | 13.4 | 0.01 | – | –
COc1cccc(C2=NOC3(CCN(C(=O)/C=C/c4ccc(C(F)(F)F)nc4N4CCOCC4)CC3)C2)c1 [Compound 342, (E)-1-(3-(3-methoxyphenyl)-1-oxa-2,8-diazaspiro[4.5]dec-2-en-8-yl)-3-(2-morpholino-6-(trifluoromethyl)pyridin-3-yl)prop-2-en-1-one] | 60 | 0 | 53 | 0 | 6.32 | 5.81
O=C(Nc1ccccc1Oc1ccccc1)N1CCC2(CC1)CC(c1ccc(C(F)(F)F)cc1)=NO2 [Compound 103, 3-(4-trifluoromethylphenyl)-1-oxa-2,8-diazaspiro[4.5]dec-2-ene-8-carboxylic acid-(2-phenoxyphenyl)amide] | 50.9 | -0.47 | 8.28 | -0.35 | – | –
COc1cccc(C2=NOC3(CCN(C(=S)Nc4ccc(C(C)(C)C)cc4)CC3)C2)c1 [Compound 278, 3-(3-methoxyphenyl)-1-oxa-2,8-diazaspiro[4.5]dec-2-ene-8-thiocarboxylic acid-(4-tert-butylphenyl)amide] | 88.1 | 0.73 | 28.1 | 0.66 | – | –
CC(C)(C)c1ccc(NC(=O)N2CCC3(CC2)CC(c2ccccc2)=NO3)cc1 [Compound 141, 3-phenyl-1-oxa-2,8-diazaspiro[4.5]dec-2-ene-8-carboxylic acid-(4-tert-butylphenyl)amide] | 98.5 | 0.42 | 20.4 | -0.3 | 7.11 | –
O=C(Nc1ccc(Br)cc1)N1CCC2(CC1)CC(c1ccccc1)=NO2 [Compound 197, 3-phenyl-1-oxa-2,8-diazaspiro[4.5]dec-2-ene-8-carboxylic acid-(4-bromophenyl)amide] | 59.9 | -0.35 | -17.2 | 0.06 | – | –
CC(C)c1ccc(NC(=O)N2CCC3(CC2)CC(c2ccccc2)=NO3)cc1 [Compound 78, 3-phenyl-1-oxa-2,8-diazaspiro[4.5]dec-2-ene-8-carboxylic acid-(4-isopropylphenyl)amide] | 95 | 0.02 | 11.8 | 0.11 | – | –
COc1cccc(C2=NOC3(CCN(C(=O)Nc4cc(C(F)(F)F)ccc4Cl)CC3)C2)c1 [Compound 221, 3-(3-methoxyphenyl)-1-oxa-2,8-diazaspiro[4.5]dec-2-ene-8-carboxylic acid-(2-chloro-5-trifluoromethylphenyl)amide] | 72.8 | 0.95 | -11.6 | -0.04 | – | –
